The assay is described as follows: DPPH free-radical test of antioxidant potential. The format is biochemical. The text has this: Objective: analyzing the antioxidant potential of the complex of the present invention in comparison with other known antioxidant system compositions. A solution of 0.004% of DPPH (diphenyl […] hydrazyl) in ethanol was used. The action of DPPH on ethanol generates free radicals, forming colorful aducts, which are spectrophotometrically detected. Further, a solution of BHT in ethanol was used and its solutions described in the table below. Tubes with the DPPH solution and the compositions of the above products were prepared.
Background: Loss of DPPH colour is used to gauge radical scavenging.

This is an account of results in patent publication US20080075677A1, “Antioxidant Complex and a Cosmetic and Pharmaceutical Composition Comprising Said Complex” (priority 2004, published 2008).

As to `O=C1O[C@H]([C@@H](O)CO)C(O)=C1O` [vitamin C, ascorbic acid], the “effect of vitamin C on the potential of the antioxidant complex at determined concentrations” value (at determined concentrations of vitamin C) is “causes reduction of said potential”. Besides, the “effect of the presence of vitamin C on the potential of the antioxidant complex” value (vitamin C added to the antioxidant complex composition) is given as “does not improve the potential”.
